Results on two compounds are retold here after ChEMBL document CHEMBL1287752, “Changes in flavonoid content and tyrosinase inhibitory activity in kenaf leaf extract after far-infrared treatment” (Bioorg Med Chem Lett, 2010).

One experiment concerns the target T1, Tyrosinase (Agaricus bisporus, UniProt O42713).
T1 sequence (O42713 whole entry): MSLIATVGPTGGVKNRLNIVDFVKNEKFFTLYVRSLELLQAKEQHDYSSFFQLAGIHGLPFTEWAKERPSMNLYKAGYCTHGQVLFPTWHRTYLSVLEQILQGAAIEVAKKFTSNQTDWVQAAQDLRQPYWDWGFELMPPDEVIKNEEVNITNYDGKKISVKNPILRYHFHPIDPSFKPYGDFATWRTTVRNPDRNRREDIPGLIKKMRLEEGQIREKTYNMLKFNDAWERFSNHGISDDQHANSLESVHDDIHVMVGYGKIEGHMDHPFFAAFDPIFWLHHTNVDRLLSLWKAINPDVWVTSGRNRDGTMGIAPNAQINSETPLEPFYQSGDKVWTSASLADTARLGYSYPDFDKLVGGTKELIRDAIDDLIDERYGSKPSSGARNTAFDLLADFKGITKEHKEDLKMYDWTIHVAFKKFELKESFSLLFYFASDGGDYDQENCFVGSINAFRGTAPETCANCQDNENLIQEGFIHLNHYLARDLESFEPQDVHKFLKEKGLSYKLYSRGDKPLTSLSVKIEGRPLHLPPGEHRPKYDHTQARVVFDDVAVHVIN
Briefly: Inhibition of mushroom tyrosinase after 20 mins by spectrophotometric analysis.

In experiment [1] the target is T2, Tyrosinase (Agaricus bisporus) (UniProt O42713).
T2 sequence (whole entry): T1 sequence (O42713 whole entry)
The following applies: 400 uM.
Description: Inhibition of mushroom tyrosinase at 400 uM after 20 mins by spectrophotometric analysis

In turn, `C[C@@H]1O[C@@H](Oc2cc(O)c3c(=O)c(O)c(-c4ccc(O)cc4)oc3c2)[C@H](O)[C@H](O)[C@H]1O` [ALPHA-RHAMNOISOROBIN] came in with an IC50 at Tyrosinase of more than 400 µM. The same compound came in with an inhibition in experiment [1] of less than 39.1%.
On Tyrosinase, `O=c1c(O)c(-c2ccc(O)cc2)oc2cc(O)cc(O)c12` [KAEMPFEROL] displayed an IC50 of 171 µM.
